Results from ChEMBL document CHEMBL1201862, “PubChem BioAssay data set” (2004).
Activity calls are given as the source filed them.

Legend:
Paired box protein Pax-8 = Paired box protein Pax-8 (Homo sapiens, UniProt Q06710); assay: PAX8 transcriptional activity inhibition in RMG-I – RMG-I cells, luciferase, cherry-pick, dose response (AID 687027); type: functional, cell-based;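 also: luciferase reporter driven by Pax8 target thyroperoxidase promoter measured by SteadyGlo luminescence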
[1] = OVCAR-3 cell viability loss – plate reader, dry powder samples, PAX8 inhibitor project, dose response (AID 743044); type: functional, cell-based
[2] = general cell-killing toxicity readout – plate reader, dry powder samples, cytotoxicity control for PAX8 inhibitor project, dose response (AID 743021); type: functional, cell-based
[3] = OVCAR8 cell viability loss – plate reader, dry powder samples, PAX8 project, dose response (AID 743197); type: functional, cell-based; settings: OVCAR-8
[4] = antimalarial activity against Dd2 parasites – SYBR Green fluorescence, erythrocytes, dry powder, set 2, dose response (AID 1159574); type: functional, cell-based
[5] = HGIII-sPLA2 enzyme inhibition potency – biochemical, QFRET, IC50, dose response (AID 743457);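 also: green fluorescence rise as the enzyme cleaves BODIPY PC-A2 in liposomes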
[6] = CellTiter-Glo luminescence survival assay, SW480 colon tumor line, concentration-response curve, half-maximal inhibitory concentration (AID 1117338); type: functional
[7] = RKO cell viability reduction, dose response, CellTiter-Glo luminescence (AID 1117322); type: functional
[8] = cytotoxicity toward HCT116 cells – cell-based, CellTiter-Glo luminescence, IC50, dose response (AID 1117332); type: functional; settings: HCT-116
[9] = SNU-C1 cell viability reduction, dose response, CellTiter-Glo luminescence (AID 1117323); type: functional, cell-based
[10] = cytotoxicity toward Colo320 cells – cell-based, CellTiter-Glo luminescence, IC50, dose response (AID 1117334); type: functional; settings: COLO 320
[11] = cytotoxicity toward HT-29 cells – cell-based, CellTiter-Glo luminescence, IC50, dose response (AID 1117330); type: functional
[12] = Reduced DLD-1 viability, concentration-response, CellTiter-Glo luminescence (AID 1117352); type: functional
[13] = HCT116 cell viability decrease, GSK3B pretreatment – CellTiter-Glo, IC50, dose response (AID 1117339); type: functional; settings: HCT-116
[14] = toxicity toward immortalized ovarian surface epithelium – cell-based, plate reader, dry powder samples, cytotoxicity control for PAX8 inhibitor project, dose response (AID 743045); type: functional
[15] = A2780 cell killing – plate reader, dry powder samples, cytotoxicity control, dose response (AID 743046); type: functional, cell-based
[16] = IGROV1 cell killing – plate reader, dry powder samples, PAX8 inhibitor project, dose response (AID 743043); type: functional, cell-based; settings: IGROV-1
cells [17] = type: functional, cell-based
[18] = target: T1, Nuclear receptor subfamily 0 group B member 1 (Homo sapiens, UniProt P51843); type: functional, cell-based;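 also: HEK293T cells transfected with SF-1 and DAX-1 plus StAR promoter luciferase reporter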
T1 sequence (P51843 whole entry): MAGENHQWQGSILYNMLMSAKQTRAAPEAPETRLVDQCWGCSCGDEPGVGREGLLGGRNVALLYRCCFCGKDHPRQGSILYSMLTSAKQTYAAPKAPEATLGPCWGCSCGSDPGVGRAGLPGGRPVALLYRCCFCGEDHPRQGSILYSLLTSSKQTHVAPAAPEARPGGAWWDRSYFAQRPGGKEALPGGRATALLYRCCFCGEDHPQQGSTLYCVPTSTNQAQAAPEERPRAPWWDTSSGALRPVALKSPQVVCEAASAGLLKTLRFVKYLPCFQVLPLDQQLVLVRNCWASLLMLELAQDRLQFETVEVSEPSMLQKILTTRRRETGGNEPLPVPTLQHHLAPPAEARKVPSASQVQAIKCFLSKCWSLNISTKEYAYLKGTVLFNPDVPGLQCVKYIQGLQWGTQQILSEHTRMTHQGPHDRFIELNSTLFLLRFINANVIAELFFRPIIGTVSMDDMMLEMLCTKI

[19] = Late stage assay provider results from the probe development effort to identify selective inhibitors of heat shock protein 90 (HSP90): Absorbance-based cell proliferation assay in SKBR3 cells.; type: functional; settings: SK-BR-3
[20] = Late stage assay provider results from the probe development effort to identify selective inhibitors of heat shock protein 90 (HSP90): Absorbance-based cell proliferation assay in MCF7 cells.; type: functional
[21] = rise of 2N DNA cells, HeLa – IC50, dose response (AID 1117349); type: functional, cell-based
[22] = rise of 4N DNA cells, HeLa – IC50, dose response (AID 1117351); type: functional, cell-based
[23] = THP-1 cell cytotoxicity, dose response, cytotoxicity control for non-replicating M. tuberculosis project (AID 489025); type: functional
cells [24] = type: functional
Galanin receptor type 3 = Galanin receptor type 3 (Homo sapiens, UniProt O60755); assay: Fluorescence-based cell-based primary high throughput dose response assay to identify antagonists of the Galanin Receptor 3 (GalR3).; type: functional
cells [25] = type: functional, cell-based; settings: HEK-CNG
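For EC50 in this document: target is galanin receptor GalR3 read with a cAMP biosensor in HEK293 cells.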

Sequence of Paired box protein Pax-8 (Q06710 whole entry): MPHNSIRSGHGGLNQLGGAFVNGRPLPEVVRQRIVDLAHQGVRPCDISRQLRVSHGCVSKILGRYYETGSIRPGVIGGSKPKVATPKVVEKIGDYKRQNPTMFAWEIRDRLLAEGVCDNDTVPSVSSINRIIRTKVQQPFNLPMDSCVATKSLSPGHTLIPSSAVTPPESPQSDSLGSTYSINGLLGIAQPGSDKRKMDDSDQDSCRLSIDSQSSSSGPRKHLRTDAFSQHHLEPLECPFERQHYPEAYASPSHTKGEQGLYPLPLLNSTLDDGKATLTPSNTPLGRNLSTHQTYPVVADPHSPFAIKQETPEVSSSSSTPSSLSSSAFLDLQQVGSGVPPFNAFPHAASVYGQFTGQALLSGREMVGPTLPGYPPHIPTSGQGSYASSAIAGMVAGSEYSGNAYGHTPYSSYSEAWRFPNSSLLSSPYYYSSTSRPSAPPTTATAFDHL
Sequence of Galanin receptor type 3 (O60755 whole entry): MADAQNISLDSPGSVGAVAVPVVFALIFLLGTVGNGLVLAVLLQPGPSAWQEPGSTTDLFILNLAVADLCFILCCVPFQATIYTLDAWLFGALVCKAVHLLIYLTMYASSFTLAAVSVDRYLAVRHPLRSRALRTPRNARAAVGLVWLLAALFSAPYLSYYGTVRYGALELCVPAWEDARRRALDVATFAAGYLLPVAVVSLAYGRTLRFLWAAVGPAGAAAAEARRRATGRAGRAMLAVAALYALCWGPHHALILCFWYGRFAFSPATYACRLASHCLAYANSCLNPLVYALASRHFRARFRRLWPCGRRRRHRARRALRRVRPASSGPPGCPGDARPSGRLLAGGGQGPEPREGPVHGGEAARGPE

COc1ccc(NC(=O)N2CCCCN3[C@H](C2)[C@@H](c2ccc(C#Cc4ccccc4)cc2)[C@@H]3CO)cc1
active: AC50 (Paired box protein Pax-8) 5.67 µM | AC50 [1] 58.4 µM | AC50 [2] 29.7 µM | AC50 [3] 39.7 µM | AC50 [4] 2.1 µM

Cc1cccc(NN=C(S)Nc2c(C)cccc2C)c1
inactive: IC50 [5] > 122 µM

C[C@H](O)CN(C)C
inactive: IC50 [6] > 20 µM | IC50 [7] > 20 µM | IC50 [8] > 20 µM | IC50 [9] > 20 µM | IC50 [10] > 20 µM | IC50 [11] > 20 µM | IC50 [12] > 20 µM | IC50 [13] > 20 µM

Cc1ccc(S(=O)(=O)N(C)C[C@@H]2Oc3ccc(NC(=O)Nc4ccc(C(F)(F)F)cc4)cc3CC(=O)N([C@@H](C)CO)C[C@@H]2C)cc1
active: AC50 (Paired box protein Pax-8) 0.799 µM | AC50 [14] 0.483 µM | AC50 [15] 3.88 µM | AC50 [1] 0.584 µM | AC50 [16] 1.16 µM | AC50 [3] 5.91 µM

COc1ccc(C=C2CCc3ccccc3C2=O)cc1
inactive: IC50 (cells [17]) > 67.6 µM | IC50 [18] > 67.6 µM

CCOc1cn(C)c(C(=O)Nc2ccccc2)cc1=O
inactive: IC50 [19] > 100 µM | IC50 [20] > 100 µM

NCCNc1ccc(NCCN)c2c1C(=O)c1ccncc1C2=O [PIXANTRONE]
active: IC50 [21] 0.042 µM | IC50 [22] 0.0483 µM

CC(C)(C)NC(=O)COC(=O)c1snc(C(=O)NC2CCCCC2)c1N
inactive: EC50 (cells [25]) > 29.9 µM
active: CC50 [23] > 40 µM | IC50 (cells [24]) 4.33 µM | IC50 (Galanin receptor type 3) 1.95 µM
